Test results as given in US20190256559A1, “PEPTIDOMIMETIC MACROCYCLES AND USES THEREOF” (AILERON THERAPEUTICS, INC., priority 2015, published 2019).
Entries after “also recorded” stand apart in the source; their conditions may differ. Where a SMILES comes first, the peptide text is derived from it. Bridges are numbered along the chain shown (N, C = ends). [ ]: non-standard residue; d: D form. R8 = C=CCCCCCC[C@@](C)(N)C(=O)O; S5 = C=CCCC[C@](C)(N)C(=O)O

Tests used:
[1] = test system: cryopreserved hepatocytes; assay: In vitro metabolite profile / stability in cryopreserved hepatocytes; type: in vitro ADME, mouse, rat, monkey, and human
From the text: (§1) Proteolysis is the major biotransformation pathway of peptide 1. […] The predominant metabolite was also observed in the plasma in both the rat and monkey 4-week GLP toxicology studies, with adequate exposures in these studies to provide characterization of its impact on the overall safety profile of peptide 1. […] Accumulation of the predominant metabolite was not observed with repeated twice-weekly dosing in rats or monkeys.

rat bone marrow = assay: In vivo micronucleus assay
From the text: (§2) Peptide 1 was negative in genetic toxicology studies, including bacterial mutagenicity (Ames), chromosomal aberrations (human peripheral blood lymphocyte) and in vivo micronucleus (rat bone marrow) assays.

[2] = test system: MV 4; 11 human leukemia xenograft; assay: MV 4;11 human leukemia (AML) xenograft model, survival; type: in vivo; conditions: mice, 25 mg/kg, six bi-weekly doses
Experimental: In another study, MV 4; 11 human leukemia xenograft model was used in mice to assess the ability of peptide 1 to inhibit tumor growth and improve overall survival in AML, a highly aggressive liquid tumor. In this study, 25 mg/kg dose of peptide 1 was administered in six bi-weekly doses and compared to the results of mice treated with only cyclophosphamide, the control group. Mice were monitored individually for an endpoint of morbidity due to progression of the leukemia. All ten mice that received the control exited the study between days 21 and 28, offering a sensitive assay for activity.

[3] = Preclinical GLP safety studies in rodents and monkeys (overall profile); type: in vivo
From the text: Genotoxicity, gastrointestinal toxicity, cardiotoxicity, and immunogenicity were not observed.

[4] = test system: human peripheral blood lymphocyte
[5] = test system: liquid cancer cell lines with mutant p53; assay: Multiplexed cytotoxicity assay: cell proliferation/cytotoxicity (relative cell count), 72 h, cell lines with mutant p53; type: cell-based
Experimental: The objective of this study was to concurrently evaluate peptide 1-induced cytotoxicity, p21 up-regulation and caspase-3 activation in multiple liquid cancer cell cell lines characterized as having either wild-type or mutated p53 in order to determine whether the cytotoxicity is PD-mediated.
(§3) Cell lines from hematologic liquid cancer cells, characterized for p53 mutant/wild-type status, were seeded into 384-well plates and incubated in a humidified atmosphere of 5% CO2 at 37° C. Peptide 1 was serially diluted and assayed over 10 concentrations, up to 30 μM, in a final assay concentration of 0.1% DMSO. Treatment was added 24 hours post cell seeding, when a time zero untreated cell plate was also generated to determine the number of doublings in the 72 hour assay period. About one hundred cells per well were evaluated, with each test condition run in duplicate wells. After a 72 hour incubation period, cells were fixed and stained with fluorescently labeled antibody and nuclear dye. In the same wells, nuclei were assessed for toxicity (dye uptake) by automated fluorescence microscopy; apoptosis was assayed by elevations in anti-active caspase-3 antibody; and cell cycle arrest was assayed by elevations in anti-p21 monoclonal antibody EA10.
(§4) Cell proliferation was measured by relative cell count, which was expressed as percent of control. […]

plasma protein = assay: In vitro plasma protein binding; type: in vitro ADME, mouse, rat, dog, monkey, human; conditions: for free peptide 1 fraction: human and monkey plasma
Experimental: The in vitro protein binding of peptide 1 was evaluated over a range of concentrations in mouse, rat and monkey plasma, as well as human plasma samples from normal subjects and hypoalbuminemic patients.

[6] = test system: HEL-92-1-7 leukemia cells; assay: Multiplexed cytotoxicity assay: relative cell count in HEL-92-1-7 cells (mutant p53); type: cell-based; conditions: mutant p53, 72 h
Experimental: as §3, §4
Results with HEL-92-1-7 leukemia cells (Table 17) are representative of the typical responses with these cell lines.

[7] = Single-dose rat study of metabolism and elimination; type: in vivo
From the text: as §1

[8] = 4-week monkey GLP toxicity study, twice-weekly IV dosing (toxicity and toxicokinetics); type: in vivo, monkeys
From the text: (§5) The 4-week multiple-dose GLP studies in rats and monkeys utilized twice-weekly IV dosing of peptide 1. The studies provided dose- and exposure-related assessments during both dosing and recovery periods, and results were utilized to define the maximum tolerated doses (MTD) and estimate the severely toxic dose for 10% (STD10) of rats and the highest non-severely toxic dose (HNSTD) in monkeys. All gross and microscopic signs of intolerance (e.g., reduced organ weights, sporadic findings of multi-tissue hemorrhage and hepatic necrosis) and changes in serum chemistry parameters were considered as secondary to red blood cell (RBC), platelet and/or white blood cell (WBC) depletions or anorexia and dehydration in both species.

BV-173 leukemia cells = assay: Multiplexed cytotoxicity assay: relative cell count in BV-173 cells (wild type p53); type: cell-based; conditions: wild type p53, 72 h
Experimental: as §3
(§6) Cell proliferation was measured by relative cell count, which was expressed as percent of control.
Those that did were most often characterized by significant inductions of both caspase-3 and p21. Results with BV-173 leukemia cells (Table 16) are representative of the typical responses with these cell lines.

activated caspase-3 = assay: Multiplexed cytotoxicity assay: activated caspase-3 (apoptosis) induction in p53 wild-type hematopoietic cell lines; type: cell-based
Experimental: as §3, §6

[9] = test system: cytochrome P450 (CYP) isoforms; assay: In vitro cytochrome P450 inhibition; type: in vitro ADME
From the text: (§7) Inhibition or induction of cytochrome P450 (CYP) enzymes by peptide 1 appears to be negligible at clinically-relevant concentrations, although interactions are possible at high exposures of peptide 1 with drugs that are predominantly cleared by hepatobiliary transporters.
(§8) Based on these findings, the potential of clinically relevant drug-drug interactions for concomitant medications that are cleared through CYP-mediated mechanisms can be low.

[10] = test system: cytochrome P450 (CYP) enzymes; assay: In vitro cytochrome P450 induction; type: in vitro ADME
From the text: as §7, §8

[11] = Pharmacokinetic/toxicokinetic studies after IV administration in mice, rats and monkeys; type: in vivo
From the text: Pharmacokinetic studies characterize exposure kinetics following single IV administrations of peptide 1 in mice, rats and monkeys, including evaluations of two different dosing formulations in rats and monkeys. Using qualified liquid chromatography with tandem mass spectrometry (LC-MS-MS) methods for efficacy models and dose range-finding (DRF) studies, and validated methods for GLP safety studies, absorption was characterized in mice at the MED in efficacy models and in rats and monkeys at tolerated and non-tolerated doses in toxicology studies.

[12] = test system: hematologic cancer cell lines with wild-type p53; assay: Multiplexed cytotoxicity assay: cell proliferation/cytotoxicity (relative cell count), 72 h, cell lines with wild-type p53; type: cell-based; conditions: liquid cancer cells expressing WT p53 protein
[13] = 4-week rat GLP toxicity study, twice-weekly IV dosing (toxicity and toxicokinetics); type: in vivo, rats
From the text: as §5

p21 = assay: Multiplexed cytotoxicity assay: p21 induction in p53 wild-type hematopoietic cell lines; type: cell-based
Experimental: as §3

[14] = test system: bacterial mutagenicity (Ames); assay: Bacterial mutagenicity (Ames)
From the text: as §2

[15] = in vivo, intravenous, 4-week monkey GLP toxicity study, range over doses
[16] = in vivo, intravenous, 4-week rat GLP toxicity study, range over doses

CC(=O)N[C@@H](CC(C)C)C(=O)N[C@H](C(=O)N[C@@H](Cc1ccccc1)C(=O)N[C@]1(C)CCCCCC/C=C/CCC[C@@](C)(C(=O)N[C@@H](C)C(=O)N[C@@H](C)C(=O)N[C@@H](C)C(=O)N[C@@H](C)C(=O)N[C@@H](C)C(=O)N[C@H](C)C(N)=O)NC(=O)[C@H](CC(C)C)NC(=O)[C@H](CCC(N)=O)NC(=O)[C@H](C)NC(=O)[C@H](Cc2c[nH]c3ccccc23)NC(=O)[C@H](Cc2ccc(O)cc2)NC(=O)[C@H](CCC(=O)O)NC1=O)[C@@H](C)O [peptide 1] (Ac-LTF[R8]EYWAQL[S5]AAAAA[dA]-NH2; staple (E) 4-11)
major biotransformation pathway ([1]; in vitro, across species): Proteolysis
metabolite profile across species ([1]; mouse, rat, monkey, and human cryopreserved hepatocytes): same metabolite profile
in vivo micronucleus (rat bone marrow): negative
median overall survival [2]: 40 days
Genotoxicity [3]: not observed
Histopathology [3]: bone marrow hypocellularity consistent with mild to moderate myelosuppression
cardiotoxicity [3]: not observed
gastrointestinal toxicity [3]: not observed
immunogenicity [3]: not observed
chromosomal aberrations [4]: negative
activity in in vitro liquid cancer cell growth assays ([5]; cells with mutations of p53): not in cells with mutations of p53
character of cytotoxicity ([5]; liquid cancer cell lines containing mutated p53): cell cycle arrest without elevated apoptosis
free peptide 1 fraction (plasma protein; concentrations >200 μM): 12-14%
free peptide 1 fraction (plasma protein; concentrations up to 150 μM): 3-4%
fraction unbound (plasma protein; mouse and rat plasma up 250 µM): < 0.02
fraction unbound (plasma protein; mouse, rat, dog, monkey, human, plasma of mice, rats, dogs, monkeys, and humans): 0.02 to 0.08
Relative Cell Count (%) Mean ([6]; 3.00E+00 μM): 79.2%
Relative Cell Count (%) Mean ([6]; 3.00E+01 μM): 67.9%
Relative Cell Count (%) Mean ([6]; 3.01E−01 μM): 77.8%
Relative Cell Count (%) Mean ([6]; 3.01E−02 μM): 89.8%
Relative Cell Count (%) Mean ([6]; 3.02E−03 μM): 96.8%
Relative Cell Count (%) Mean ([6]; 9.49E+00 μM): 76.9%
Relative Cell Count (%) Mean ([6]; 9.51E−01 μM): 81.9%
Relative Cell Count (%) Mean ([6]; 9.52E−02 μM): 89.7%
Relative Cell Count (%) Mean ([6]; 9.53E−03 μM): 98.2%
Relative Cell Count (%) Mean ([6]; 9.55E−04 μM): 98.5%
predominant clearance pathway [7]: hepatobiliary metabolism and elimination
exposure at the high-dose group ([8]; 20 mg/kg, 4-week monkey GLP toxicity study): apparent plateau in exposure
platelet response ([8]; 4-week monkey GLP toxicity study, different dosings): dose-dependent decreases in platelets with recovery
Cmax [8, 15]: 133 to 562 µg/mL
clearance [8, 15]: 0.108 to 0.23 mL/min/kg
half-life [8, 15]: 3.7 to 6 h
AUC(0-inf) ([8]; in vivo, intravenous, 4-week monkey GLP toxicity study, range over doses, read-out: AUC0-∞): 813 to 1600 µg·h/mL
AUC(0-inf) ([8]; in vivo, intravenous, monkey, 5 mg/kg, read-out: AUC0-∞ at HNSTD in monkeys): 813 µg·h/mL
predominant metabolite plasma exposure relative to AUC ([8]; monkey, 4-week GLP toxicology study): 10%
significant thrombocytopenia ([8]; monkeys, lowest dose level 5 mg/kg): complete lack of significant thrombocytopenia
significant thrombocytopenia ([8]; monkeys, mid- and high-dose levels): only one animal
HNSTD (highest non-severely toxic dose) ([8]; monkeys, twice-weekly IV, 4 weeks): 5 mg/kg
dose proportionality of exposure ([8]; non-human primates): increased proportionally with dose
Relative Cell Count (%) Mean (BV-173 leukemia cells; 3.00E+00 μM): 15.0%
Relative Cell Count (%) Mean (BV-173 leukemia cells; 3.00E+01 μM): 2.2%
Relative Cell Count (%) Mean (BV-173 leukemia cells; 3.01E−01 μM): 31.8%
Relative Cell Count (%) Mean (BV-173 leukemia cells; 3.01E−02 μM): 84.8%
Relative Cell Count (%) Mean (BV-173 leukemia cells; 3.02E−03 μM): 99.9%
Relative Cell Count (%) Mean (BV-173 leukemia cells; 9.49E+00 μM): 4.3%
Relative Cell Count (%) Mean (BV-173 leukemia cells; 9.51E−01 μM): 14.3%
Relative Cell Count (%) Mean (BV-173 leukemia cells; 9.52E−02 μM): 64.4%
Relative Cell Count (%) Mean (BV-173 leukemia cells; 9.53E−03 μM): 94.9%
Relative Cell Count (%) Mean (BV-173 leukemia cells; 9.55E−04 μM): 100.8%
apoptotic response (activated caspase-3) (activated caspase-3): robust apoptotic responses
inhibition of cytochrome P450 (CYP) isoforms [9]: negligible; also recorded: not an inhibitor
induction of cytochrome P450 (CYP) enzymes [10]: negligible; also recorded: did not indicate any significant treatment-related effects
dose proportionality of exposure ([11]; rats and monkeys): increased proportionally with dose
sex-based differences in PK ([11]; rats and monkeys): No significant sex-based differences
accumulation following multiple doses ([11]; rats and monkeys, twice-weekly schedule): no accumulation
accumulation of the predominant metabolite ([11]; repeated twice-weekly dosing in rats or monkeys): not observed
activity in in vitro liquid cancer cell growth assays [12]: demonstrates activity
Cmax [13, 16]: 49.9 to 186 µg/mL
clearance [13, 16]: 0.32 to 0.472 mL/min/kg
AUC(0-inf) ([13]; in vivo, intravenous, 4-week rat GLP toxicity study, range over doses, read-out: AUC0-∞): 90.5 to 562 µg·h/mL
AUC(0-inf) ([13]; in vivo, intravenous, rat, 10 mg/kg, read-out: AUC0-∞ at rat STD10): 562 µg·h/mL
predominant metabolite exposure relative to peptide 1 AUC ([13]; rat, 4-week GLP toxicology study): 6%
dose proportionality of Cmax and AUC ([13]; rats): linear, dose-proportional increases
STD10 (severely toxic dose for 10%) ([13]; rats, twice-weekly IV, 4 weeks): 10 mg/kg
induction of p21 (p21): significant induction of p21
bacterial mutagenicity (Ames) [14]: negative
